Data as given in patent EP0080819A1, “11-0-Alkylerythromycin A derivatives” (TAISHO PHARMACEUTICAL CO. LTD, priority 1981, dated 1983).

Test system: Staphylococcus aureus Smith No. 4
Experiment: In vivo antibacterial activity (mouse protection test, number of surviving mice)
Details: oral, one hour after inoculation, male ddY mice, groups of 20, 10^7 cells per mouse, i.p., living mice for seven days after administration
Procedure: Male ddY mice weighing 20 - 23 g in groups 20 each were inoculated with Staphylococcus aureus Smith No. 4 (10^7 cells per mouse, i.p.). Erythromycin A was used as a control, the compound of formula I wherein R is methyl group("compound 1") was administered orally at one hour after inoculation, and the number of living mice for seven days after administration was calculated to determine the in vivo antibacterial activity.

Structure (SMILES)	In vivo Antibacterial Activity [The Number of Surviving Mice] (dose 0.5 mg/mouse)	In vivo Antibacterial Activity [The Number of Surviving Mice] (dose 1 mg/mouse)	In vivo Antibacterial Activity [The Number of Surviving Mice] (dose 2 mg/mouse)	In vivo Antibacterial Activity [The Number of Surviving Mice] (dose 4 mg/mouse)
CC[C@H]1OC(=O)[C@H](C)[C@@H](O[C@H]2C[C@@](C)(OC)[C@@H](O)[C@H](C)O2)[C@H](C)[C@@H](O[C@@H]2O[C@H](C)C[C@H](N(C)C)[C@H]2O)[C@](C)(O)C[C@@H](C)C(=O)[C@H](C)[C@@H](OC)[C@]1(C)O [Compound 1, 11-0-methylerythromycin A]	6	12	20	20
CC[C@H]1OC(=O)[C@H](C)[C@@H](O[C@H]2C[C@@](C)(OC)[C@@H](O)[C@H](C)O2)[C@H](C)[C@@H](O[C@@H]2O[C@H](C)C[C@H](N(C)C)[C@H]2O)[C@](C)(O)C[C@@H](C)C(=O)[C@H](C)[C@@H](O)[C@]1(C)O [Erythromycin A]	4	8	18	20
